Results taken from PubChem BioAssay (NCI).
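Cells were grown in 96-well plates and exposed to each compound for 48 hours at five concentrations; endpoints were interpolated linearly between bracketing concentrations, or set to the highest concentration if not reached. At the GI50, growth is halved. TGI is the concentration that stops growth completely.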

How the values were obtained:
Test in all cases: NCI tumour cell line growth inhibition, 48 h
NCI-H522 lung = system: NCI-H522 lung
UO-31 renal = system: UO-31 renal
SNB-75 CNS = system: SNB-75 CNS
HL-60(TB) leukemia = system: HL-60(TB) leukemia
HCT-15 colon = system: HCT-15 colon
MOLT-4 leukemia = system: MOLT-4 leukemia
HCC-2998 colon = system: HCC-2998 colon
SF-539 CNS = system: SF-539 CNS
A549 NSCLC = system: A549 NSCLC
M14 melanoma = system: M14 melanoma
LOX IMVI melanoma = system: LOX IMVI melanoma
COLO 205 colon = system: COLO 205 colon
CAKI-1 renal = system: CAKI-1 renal
OVCAR-5 ovarian = system: OVCAR-5 ovarian
OVCAR-8 ovarian = system: OVCAR-8 ovarian
UACC-62 melanoma = system: UACC-62 melanoma
CCRF-CEM leukemia = system: CCRF-CEM leukemia
MDA-N = system: MDA-N
A498 renal = system: A498 renal

Row | SMILES | TGI (NCI-H522 lung) | TGI (UO-31 renal) | TGI (SNB-75 CNS) | TGI (HL-60(TB) leukemia) | TGI (HCT-15 colon) | TGI (MOLT-4 leukemia) | TGI (HCC-2998 colon) | TGI (SF-539 CNS) | TGI (A549 NSCLC) | TGI (M14 melanoma) | TGI (LOX IMVI melanoma) | TGI (COLO 205 colon) | TGI (CAKI-1 renal) | TGI (OVCAR-5 ovarian) | TGI (OVCAR-8 ovarian) | TGI (UACC-62 melanoma) | TGI (CCRF-CEM leukemia) | TGI (MDA-N) | TGI (A498 renal) | GI50 (HL-60(TB) leukemia)
1 | CC#CC#C/C=C1\C=CC2(OC=CC2O)O1 (stereo not drawn) | > 20.3 µM | > 23.3 µM | > 23.3 µM | > 23.3 µM | > 23.3 µM | > 23.3 µM | > 23.3 µM | > 23.3 µM | > 23.3 µM | > 23.3 µM | > 23.3 µM | 6.83 µM | > 23.3 µM | 11.8 µM | > 23.3 µM | > 23.3 µM | > 21.1 µM | – | – | –
2 | CCOc1cc2c(cc1O)C(=O)C[C@@H]1[C@@H]2CC[C@]2(C)[C@@H](O)CC[C@@H]12 | 3.2 µM | > 100 µM | – | – | 29.3 µM | > 31.7 µM | 4.56 µM | 0.487 µM | > 100 µM | > 38.9 µM | > 100 µM | 47.4 µM | > 100 µM | > 100 µM | 27.1 µM | > 100 µM | > 100 µM | 0.106 µM | > 29.1 µM | –
3 | COc1cccc(/C=N/[N-]C(N)=O)c1[O-].[Co+2].[OH3+].c1ccncc1 | > 100 µM | > 100 µM | > 100 µM | > 100 µM | > 100 µM | > 100 µM | > 100 µM | > 100 µM | > 100 µM | > 100 µM | > 100 µM | > 100 µM | > 100 µM | > 100 µM | > 100 µM | > 100 µM | > 100 µM | – | – | 30.8 µM
4 | Cc1ccc(S(=O)(=O)Nn2c(S)c(C#N)c(-c3ccc(Cl)cc3)c(C#N)c2=O)cc1 | 37.4 µM | 57.5 µM | > 100 µM | 65.8 µM | 71.1 µM | > 100 µM | > 100 µM | 39.6 µM | > 100 µM | > 100 µM | > 100 µM | > 100 µM | > 100 µM | > 100 µM | 50.8 µM | > 100 µM | > 100 µM | – | > 100 µM | –
5 | COc1cc(C(c2ccc3c(c2)OCO3)C2SCCCS2)cc(OC)c1OC (stereo not drawn) | 5.87 µM | > 100 µM | 5.83 µM | – | 6.58 µM | 8.29 µM | 8.8 µM | – | 53.3 µM | 95.5 µM | – | 3.08 µM | 20.1 µM | 66.2 µM | 64.8 µM | 28.2 µM | 3.56 µM | 1.77 µM | 5.11 µM | –
6 | COC(=O)C1=CCC2c3[nH]c4ccccc4c3CCN2C1 (stereo not drawn) | > 354 µM | – | – | > 354 µM | > 354 µM | > 354 µM | > 354 µM | > 354 µM | > 354 µM | – | > 354 µM | > 354 µM | > 354 µM | – | > 354 µM | > 354 µM | > 354 µM | – | – | –
7 | C=C(C)COc1cc(NC(=S)OC(C)C)ccc1Cl | 29.1 µM | 26.9 µM | 29.8 µM | 35.9 µM | 30.6 µM | 34.3 µM | 29.5 µM | 30 µM | 25.8 µM | 31.7 µM | 30.4 µM | 31.6 µM | 28.7 µM | 29.4 µM | 30.7 µM | 32.7 µM | 39.2 µM | 31.5 µM | – | –
8 | CC1(C)[C@H]2Cc3cc4nc5ccccn5c4cc3[C@@H]1C2 | 21.9 µM | 26.9 µM | 31.6 µM | 57.2 µM | 35 µM | 54.8 µM | 37 µM | 33.6 µM | 40.7 µM | 38.2 µM | 39.4 µM | 34.7 µM | 30 µM | 30.8 µM | 30.5 µM | 29.9 µM | 75.1 µM | 33.4 µM | – | –
9 | O=C1N[C@H](C(=O)O)[C@@H](c2ccc(OCc3ccccc3)cc2)O1 | > 100 µM | > 100 µM | 28 µM | – | > 100 µM | > 100 µM | > 100 µM | – | > 100 µM | > 100 µM | – | > 100 µM | > 100 µM | > 100 µM | 45.8 µM | > 100 µM | > 100 µM | > 100 µM | – | –
10 | S=C1NNC2(C(=S)N1)c1ccccc1-c1ccccc12 | – | > 10 µM | > 10 µM | > 10 µM | > 10 µM | > 10 µM | > 10 µM | > 10 µM | > 10 µM | > 10 µM | > 10 µM | > 10 µM | > 10 µM | – | > 10 µM | > 10 µM | > 10 µM | – | > 10 µM | –
11 | Cc1cccc(-c2nc(-c3cnccn3)n(Cc3ccccc3)n2)c1 | > 100 µM | > 100 µM | 30.2 µM | > 100 µM | > 100 µM | > 100 µM | > 100 µM | > 100 µM | > 100 µM | > 100 µM | > 100 µM | > 100 µM | – | > 100 µM | > 100 µM | > 100 µM | > 100 µM | > 100 µM | – | –
12 | C[C@@H](c1ccccc1)N1CO[C@@]2(C#Cc3ccc4c(c3)OCO4)CCC[C@@H]12 | – | 28.1 µM | 27.9 µM | > 100 µM | 27.4 µM | 48.2 µM | 34.7 µM | – | 29.6 µM | 31.2 µM | 25.2 µM | 31.4 µM | 34.6 µM | 32 µM | 27 µM | > 100 µM | > 100 µM | 37.7 µM | – | –
13 | C/C(CCN(C)C)=N\OC(=O)c1ccccc1 | > 100 µM | > 100 µM | > 100 µM | > 100 µM | – | > 100 µM | > 100 µM | > 100 µM | > 100 µM | > 100 µM | > 100 µM | > 100 µM | > 100 µM | > 100 µM | > 100 µM | > 100 µM | > 100 µM | – | > 100 µM | –
14 | COc1ccc(CNc2nc3cc(C(F)(F)F)ccc3nc2C(=O)O)cc1 | – | 42.5 µM | > 100 µM | – | 69.3 µM | 52.6 µM | 71.3 µM | 49.2 µM | 95.9 µM | 58.1 µM | 44.3 µM | 39.7 µM | > 100 µM | 94.7 µM | > 100 µM | 49.8 µM | > 100 µM | 74.6 µM | 53 µM | –
